# Laboratory results published in DBAASP.
# Key:
# Assay in all cases: ≥ marks a high value that may be exact or a test limit, other limits are often not marked, values filed in µg/mL are converted to µM
# Staphylococcus aureus = test system: Staphylococcus aureus
# Streptococcus sanguinis = test system: Streptococcus sanguinis
# [1] = test system: Enterococcus faecalis ATCC 19433
# [2] = test system: Pseudomonas aeruginosa PAO1
# [3] = test system: Enterococcus faecalis ATCC BAA-2365
# [4] = test system: Staphylococcus aureus ATCC 9144
# [5] = test system: Klebsiella pneumoniae NCTC 13368
# [6] = test system: Staphylococcus aureus ATCC 29213
# [7] = test system: Escherichia coli NCTC 12923
# [8] = test system: Staphylococcus aureus ATCC 43300
# [9] = test system: Staphylococcus aureus USA 300
# [10] = test system: Staphylococcus aureus ATCC 33591
# [11] = test system: Staphylococcus aureus ATCC BAA-41
# [12] = test system: Staphylococcus epidermidis ATCC 12228
# [13] = test system: Enterococcus faecium ATCC BAA-2316
# [14] = test system: Acinetobacter baumannii ATCC 17978
# [15] = test system: Enterococcus faecalis ATCC 29212
# [16] = test system: Escherichia coli ATCC 25922
# [17] = test system: Pseudomonas aeruginosa ATCC 27853
# [18] = test system: Staphylococcus aureus ATCC 25923
# [19] = test system: Pseudomonas aeruginosa ATCC 9027
# [20] = test system: Staphylococcus aureus ATCC 19636
# Escherichia coli ST131 = test system: Escherichia coli ST131
# [21] = test system: Klebsiella pneumoniae ST258
# Escherichia coli JM109 = test system: Escherichia coli JM109
# [22] = test system: Staphylococcus aureus CCRC 12652
# Staphylococcus xylosus = test system: Staphylococcus xylosus
# Salmonella enterica = test system: Salmonella enterica
# [23] = test system: Klebsiella pneumoniae CCRC 10694
# [24] = test system: Bifidobacterium adolescentis
# Escherichia coli BL21 = test system: Escherichia coli BL21
# Citrobacter koseri = test system: Citrobacter koseri
# [25] = test system: Staphylococcus aureus CCRC 15211
# Pseudomonas aeruginosa = test system: Pseudomonas aeruginosa
# [26] = test system: Vibrio parahaemolyticus CCRC 10806
# Enterococcus faecium = test system: Enterococcus faecium
# [27] = test system: Salmonella typhimurium CCRC 12947
# [28] = test system: Lactobacillus delbrueckii subsp. bulgaricus
# [29] = test system: Candida krusei CGMCC 2.1857
# Candida albicans = test system: Candida albicans
# [30] = test system: Salmonella enterica subsp. enterica serovar Typhimurium ATCC 14028
# Escherichia coli 1005 = test system: Escherichia coli 1005
# [31] = test system: Candida tropicalis CGMCC 2.1975
# [32] = test system: Salmonella enterica subsp. enterica serovar Pullorum ATCC 7913
# [33] = test system: Candida parapsilosis CGMCC 2.3989
# [34] = test system: Staphylococcus pseudintermedius
structure (smiles),measurement,setting,value
NC(=O)[C@H](Cc1ccccc1)NC(=O)[C@H](Cc1ccccc1)NC(=O)[C@H](Cc1ccccc1)NC(=O)[C@H](Cc1ccccc1)NC(=O)[C@H](Cc1ccccc1)NC(=O)[C@@H](N)Cc1ccccc1 [FFFFFF],MIC,Staphylococcus aureus,14.3 µM
same,MIC,Streptococcus sanguinis,8.3 µM
CC[C@H](C)[C@H](NC(=O)[C@H](C)NC(=O)[C@H](CCCCN)NC(=O)[C@H](CCCN=C(N)N)NC(=O)[C@@H](NC(=O)[C@H](CC(C)C)NC(=O)[C@H](CO)NC(=O)[C@H](Cc1ccccc1)NC(=O)[C@H](CC(C)C)NC(=O)[C@@H](N)Cc1ccccc1)[C@@H](C)CC)C(=O)NCC(=O)NCC(=O)N[C@@H](CC(C)C)C(=O)N[C@H](C(=O)N[C@@H](CO)C(=O)N[C@@H](C)C(=O)N[C@@H](Cc1ccccc1)C(=O)N[C@@H](CCCCN)C(=O)O)[C@@H](C)CC [FLFSLIRKAIGGLISAFK],MIC,[1],12.5 µM
same,MIC,[2],> 64.6 µM
same,MIC,[3],5 µM
same,MIC,[4],8.07 µM
same,MIC,[5],≥ 64.6 µM
same,MIC,[6],5 µM
same,MIC,[7],≥ 64.6 µM
same,MIC,[8],5 µM
same,MIC,[9],16.1 µM
same,MIC,[10],5 µM
same,MIC,[11],5 µM
same,MIC,[12],2.5 µM
same,MIC,[13],15 µM
same,MIC,[14],4.04 µM
same,MIC,[15],10 µM
CC(C)C[C@H](NC(=O)[C@H](C)NC(=O)[C@H](CCCCN)NC(=O)[C@H](CC(C)C)NC(=O)[C@H](Cc1c[nH]c2ccccc12)NC(=O)[C@H](CCCCN)NC(=O)[C@H](CCCN=C(N)N)NC(=O)[C@H](Cc1c[nH]c2ccccc12)NC(=O)[C@H](CCCCN)NC(=O)[C@@H](N)CCCCN)C(=O)N[C@@H](C)C(=O)N[C@@H](CCCCN)C(=O)N[C@@H](CCCCN)C(=O)O [KKWRKWLKALAKK],MIC,[16],7.42 µM
same,MIC,[17],14.8 µM
same,MIC,[18],> 29.7 µM
same,MIC,[6],29.7 µM
same,MIC,[19],14.8 µM
same,MIC,[20],3.74 µM
CC(C)C[C@H](NC(=O)[C@H](Cc1c[nH]c2ccccc12)NC(=O)[C@H](CCCCN)NC(=O)[C@H](CC(C)C)NC(=O)[C@H](Cc1c[nH]c2ccccc12)NC(=O)[C@H](CCCCN)NC(=O)[C@H](CCCN=C(N)N)NC(=O)[C@H](Cc1c[nH]c2ccccc12)NC(=O)[C@H](CCCCN)NC(=O)[C@@H](N)CCCCN)C(=O)N[C@@H](C)C(=O)N[C@@H](CCCCN)C(=O)N[C@@H](CCCCN)C(N)=O [KKWRKWLKWLAKK],MIC,[16],2 µM
same,MIC,Escherichia coli ST131,2 µM
same,MIC,[21],4 µM
CC[C@H](C)[C@H](NC(=O)[C@H](CO)NC(=O)[C@H](CCCCN)NC(=O)[C@H](Cc1c[nH]c2ccccc12)NC(=O)[C@H](CCCCN)NC(=O)[C@@H](N)CC(C)C)C(=O)N[C@H](C(=O)N[C@@H](CO)C(=O)N[C@@H](Cc1c[nH]c2ccccc12)C(=O)N[C@@H](C)C(=O)N[C@@H](CCCCN)C(=O)N[C@@H](CCCCN)C(=O)N[C@H](C(=O)N[C@@H](CC(C)C)C(N)=O)C(C)C)C(C)C [LKWKSIVSWAKKVL],MIC,Escherichia coli JM109,0.593 µM
same,MIC,[22],3.35 µM
same,MIC,Staphylococcus xylosus,0.296 µM
same,MIC,Salmonella enterica,3.35 µM
same,MIC,[23],4.74 µM
same,MIC,[24],≥ 75.9 µM
same,MIC,Escherichia coli BL21,1.68 µM
same,MIC,Citrobacter koseri,0.839 µM
same,MIC,[25],3.35 µM
same,MIC,Pseudomonas aeruginosa,26.8 µM
same,MIC,[26],2.37 µM
same,MIC,Enterococcus faecium,≥ 75.9 µM
same,MIC,[27],2.37 µM
same,MIC,[28],≥ 75.9 µM
CC[C@H](C)[C@H](NC(=O)[C@H](CCCN=C(N)N)NC(=O)[C@@H](NC(=O)[C@@H](NC(=O)[C@@H](NC(=O)[C@H](CCCN=C(N)N)NC(=O)[C@@H](NC(=O)[C@H](CCCN=C(N)N)NC(=O)[C@@H](N)CCCN=C(N)N)[C@@H](C)CC)[C@@H](C)CC)[C@@H](C)CC)[C@@H](C)CC)C(=O)N[C@@H](CCCN=C(N)N)C(=O)N[C@@H](CCCN=C(N)N)C(N)=O [RRIRIIIRIRR],MIC,[29],2 µM
same,MIC,Candida albicans,1.41 µM
same,MIC,[18],4 µM
same,MIC,[6],4 µM
same,MIC,[8],4 µM
same,MIC,[30],4 µM
same,MIC,[12],4 µM
same,MIC,Escherichia coli 1005,4 µM
same,MIC,[31],1 µM
same,MIC,[32],2 µM
same,MIC,[33],4 µM
CC(=O)N[C@@H](CCCN=C(N)N)C(=O)N[C@@H](CCCN=C(N)N)C(=O)N[C@@H](CCCN=C(N)N)C(=O)N[C@@H](Cc1c[nH]c2ccccc12)C(=O)N[C@@H](CCCN=C(N)N)C(=O)N[C@@H](CCCCN)C(=O)N[C@@H](CCCN=C(N)N)C(=O)N[C@@H](CCCN=C(N)N)C(=O)N[C@@H](Cc1c[nH]c2ccccc12)C(=O)N[C@@H](Cc1c[nH]c2ccccc12)C(=O)N[C@@H](Cc1c[nH]c2ccccc12)C(N)=O [RRRWRKRRWWW],MIC,[17],17.5 µM
same,MIC,[6],17.5 µM
same,MIC,Pseudomonas aeruginosa,24.8 µM
same,MIC,[34],24.8 µM
